Measurements as given in US20230277553A1, “THERAPEUTIC COMPOSITION OF CURE-PRO COMPOUNDS FOR TARGETED DEGRADATION OF BET DOMAIN PROTEINS, AND METHODS OF MAKING AND USAGE” (CORNELL UNIVERSITY, priority 2020, published 2023).
“Also recorded” adds a separate entry of the source.

Legend:
Assay type in all cases: cell-based
caspase 3/7 [1] = assay: Caspase-Glo 3/7 assay, Molm-13 cells
Description: (§1) Caspase-glo® assay (Promega) was conducted following the manufacturer's recommendations. Cells were seeded at a density of 5000 cells/well in a white 96 well plates (Corning, #3917) in a total volume of 100 μl with respective monomers, combinations of BRD ligands together with E3 ligase ligands or vehicle control treatment. After a 24 h incubation, 100 μl of the […] substrate was added per well and luminescence was read on a Spectramax M5 (Molecular Devices).
(§2) Molm-13 (FIG. 76A) or Namalwa (FIG. 76B) cells (5×10^4) were treated for 24 hours with the compounds solubilized in DMSO in white 96 well plates (10 nM-10 μM solubilized in DMSO). FIG. 76 is a bar graph depiction of fold increase of apoptosis assessed via caspase 3/7 activity using the Caspase-glo assay (Promega) described above.

BRD4 [2] = target: T1, BRD4 (Homo sapiens, UniProt O60885); assay: CURE-PRO-mediated BRD4 degradation with VHL ligands, Western blot, MCF7 cells; set-up: endogenous in cells; conditions: MCF7, 24 h
Description: (§3) All cell lines were purchased from ATCC or DSMZ and grown at 37° C. with 5% CO2. Human HeLa cells were cultured in complete growth medium (Dulbecco's modified Eagle's medium (DMEM) supplemented with 10% FBS); MCF7 cells were cultured in complete growth medium (Dulbecco's modified Eagle's medium (DMEM) supplemented with 10% FBS and 0.01 mg/ml human recombinant insulin (Sigma Aldrich); Namalwa and MOLM-13 cells were cultured in complete growth medium (RPMI 1640 medium supplemented with 10% FBS); MV-4-11 were cultured in complete growth medium (Iscove's Modified Dulbecco's medium, supplemented with 10% FBS); HCT116 cells were cultured in complete growth medium (McCoy's 5a Medium supplemented with 10% FBS). For cellular degradation of BRD4 studies, cells were seeded in a 12-well plate at 70-80% confluency, allowed to attach overnight, and incubated with the indicated compounds for the indicated time. When indicated, a 15-minute pretreatment with 10 μM pomalidomide, 10 μM VHL298, 10 μM Nutlin3a, 1 μM MG-132 or 1 μM Carfilzomib was performed before the addition of CURE-PROs. For washout studies, after CURE-PRO treatment, media was aspirated and incubated with complete medium for the indicated time before lysis.
HeLa, MCF7, or HCT116 cells (2.5-3×10^6) were treated for 24 hours with the indicated compounds solubilized in DMSO. The cells were washed in ice-cold PBS and were then lysed in RIPA lysis buffer (150 mM NaCl, 5 mM EDTA, 1% NP-40, 0.5% sodium deoxycholate, 0.1% SDS, 50 mM Tris, pH 8.0.) with Roche protease inhibitor complete cocktail and phosphatase inhibitors (10 mM sodium fluoride, 10 mM sodium pyrophosphate, 1 mM sodium orthovanadate and 20 mM β-glycerophosphate). The total protein concentrations were determined by Bradford Protein Assay and 10-20 μg of protein was loaded onto 4-15% Tris-Glycine gradient gels (Biorad). After standard gel electrophoresis, the separated proteins were transferred to PVDF membrane by wet transfer. The immunoblots were then blocked for 1 hour in 5% skim milk in TBST or 5% BSA in TBST, according to manufacturer's instructions, before an overnight incubation at 4° C. with indicated antibodies and membranes. Membranes were then incubated with the appropriate horseradish peroxidase-conjugated secondary antibodies (1:5,000 dilution) for 1 h at room temperature and the bands were visualized using the Clarity Max Western ECL Substrate (Biorad) and the ChemiDoc Imaging System (Biorad). Signal was detected with ECL Western Blotting Substrate (Pierce) and X-ray film processed with a Konica SRX-101 X-ray film processor or captured by Bio-Rad's Chemidoc Imaging system.
MCF7 cells (3×10^6) were treated for 24 h with the compounds solubilized in DMSO. Compounds were added at 100 nM-10 μM. […]

caspase 3/7 [3] = assay: Caspase-Glo 3/7 assay, Namalwa cells
Description: as §1
Namalwa cells (5×104) were treated for 24 hours with the compounds solubilized in DMSO. FIG. 57 is a bar graph depiction of fold increase of apoptosis assessed via caspase 3/7 activity using the Caspase-glo assay (Promega) described above.
as §2

BRD4 [4] = target: T1, BRD4; assay: CURE-PRO-mediated BRD4 degradation with VHL ligands, WES (ProteinSimple), MCF7 cells; set-up: endogenous in cells
Description: as §3
WES Simple analysis was performed on WES system (ProteinSimple-Biotechne) according to the manufacturer's instructions. Total protein concentrations of cell lysates were determined by the Pierce BCA kit (Thermo Fisher). 3 μL of 0.3 μg/μL of the protein lysate was loaded onto a 12- to 230-kDa WES assay plate (ProteinSimple) where 300 nL sample was withdrawn through a capillary, subjected to electrophoretic separation of proteins by size, and followed by the simultaneous, HRP-based detection of proteins using the Anti-Rabbit Detection Module (Proteinsimple: #DM-001). The electropherograms were checked then the automatic peak detection was manually corrected if it was required.
MCF7 cells (3×10^6) were treated for 4-24 hours continually (FIG. 72), or treated for 4h, washed and incubated for a further 4-24 h with the compounds solubilized in DMSO. Compounds were added at 10 μM each. Cells were washed, lysed, and clarified by centrifugation. The total protein concentration was quantified by the BCA method (ThermoFisher Sciences). Standardized protein samples were electrophoresed and imaged as described in the WES Proteinsimple section above. FIG. 69 depicts the CURE-PRO-mediated BRD4 degradation for the BRD-E50 monomer, and VHL ligand, 8305.
MCF7 cells (3×10^6) were treated for 24 hours with the compounds solubilized in DMSO. CURE-PRO monomers were added at 10 μM each and the proteasomal inhibitors at 1 μM. Standardized protein samples were electrophoresed and imaged as described in the WES Proteinsimple section above. FIGS. 73 and 75 depicts the dependence of the proteasome for CURE-PRO-mediated BRD4 degradation.
MCF7 cells (3×10^6) were treated for 24 hours with the compounds solubilized in DMSO. CURE-PRO monomers were added at 10 μM. FIG. 74 depicts the CURE-PRO-mediated BRD4 degradation for the BRD-E50 monomer, and VHL ligand, 8305 combined in a 1:1 ratio after 24 h.

Molm-13 cells = assay: CellTiter-Glo cell viability, Molm-13 cells; conditions: Molm-13, 24 and 72 h
Description: CellTiter-Glo® 2.0 Cell Viability Assay (Promega) was carried out following the manufacturer's recommendations. Cells were seeded at a density of 1000 cells/well in a white 96 well plates (Corning, #3917) in a total volume of 100 μl with respective monomers, combinations of BRD ligands together with E3 ligase ligands or vehicle control treatment. After a 72 h incubation, 100 ul of the CellTiter-Glo® substrate was added per well and luminescence was read on a Spectramax M5 (Molecular Devices). Dose-response curves were generated using Graphpad Prism software.
Molm-13 cells (1×10^4) were treated for 24 (FIG. 77A) or 72 (FIG. 77B) hours were treated in white 96 well plates with the compounds (10 nM-10 μM solubilized in DMSO). After indicated times cell viability was assessed using the CellTiter-Glo® Luminescent Cell Viability Assay (Promega) and the signal detected on a SpectraMax M5 (Molecular Devices).

BRD4 [5] = target: T1, BRD4; assay: Summary of BRD4 degradation by CURE-PRO pairs, estimated from Western Blot or WES (Proteinsimple); set-up: endogenous in cells; conditions: Table 3; aromatic 1,2-diol-containing VHL ligand, second drawing (8305)
Description: A black check mark indicates efficacy of 30% to 70% or higher protein degradation.

## CCNC(=O)C[C@@H]1N=C(c2ccc(Cl)cc2)c2cc(B(O)O)ccc2-n2c(C)nnc21 [BRD-E50, ((4S)-6-(4-chlorophenyl)-4-(2-(ethylamino)-2-oxoethyl)-1-methyl-4H-benzo[f][1,2,4]triazolo[4,3-a][1,4]diazepin-8-yl)boronic acid]
Caspase 3/7 [1]; MOLM13
  Caspase activity, co-treatment with VHL298: does not increase caspase activity
Caspase 3/7 [1]; Molm-13, 24 hours, 1:1 with 8305, 10 nM-10 μM
  Caspase 3/7 activation, co-dosed with VHL ligand 8305: marked caspase activation; also recorded: demonstrates activation of caspase 3/7
BRD4 [2]; 1:1 with 8304, 1-10 μM
  BRD4 degradation, with VHL ligand 8304 (Western blot): but not when VHL ligand 8304 is co-incubated; also recorded: no degradation is noted
BRD4 [2]; 1:1 with 8305, 100 nM-10 μM
  BRD4 degradation, with VHL ligand 8305 (Western blot): there is degradation of BRD4; also recorded: marked BRD4 degradation
Caspase 3/7 [3]
  Caspase activity, co-treatment with VHL298: does not increase caspase activity
Caspase 3/7 [3]; 24 hours, 1:1 with 8305, 10 nM-10 μM
  Caspase 3/7 activation, co-dosed with VHL ligand 8305: marked caspase activation; also recorded: demonstrates activation of caspase 3/7
BRD4 [4]; MCF7, 10 μM
  BRD4 degradation, monomer alone (WES): no degradation of BRD4
BRD4 [4]; MCF7, 10 μM each
  BRD4 degradation, with VHL ligand 8304 (WES): No degradation is noted
BRD4 [4]; MCF7, 10 μM each, 1:1 with 8305, 4-24 h, with washout where stated
  BRD4 degradation, with VHL ligand 8305 (WES): directs degradation of BRD4 as early as 4 h, with sustained degradation 24 h after wash out; also recorded: marked BRD4 degradation after 4h with sustained degradation for up to 8h after drugs are washed out
BRD4 [4]; MCF7, 24 h, 10 μM
  BRD4 degradation with 8305 after VHL298 preincubation: No degradation is noted
Molm-13 cells
  Cell viability, co-treatment with VHL298: decreases levels of cell viability to similar levels of BRD-E50 treatment alone
Molm-13 cells; 1:1 with 8305, 10 nM-10 μM
  Loss of cell viability, co-dosed with VHL ligand 8305: greater loss of cell viability; also recorded: marked loss in cell viability
BRD4 [5]
  Degradation of BRD4 in combination with VHL ligand [drawing 397]: ✓ (A black check mark indicates efficacy of 30% to 70% or higher protein degradation)
